In patent publication US12397059B2, “Compounds and methods for the treatment and prevention of fibrotic disease states and cancer” (Purdue Research Foundation, priority 2019, dated 2025):

Legend:
[1] = tested on: M2-induced THP-1 macrophages; experiment: Secreted CCL18 and IL-1β in THP-1 supernatants by ELISA; assay type: cell-based, human
Protocol: FIGS. 6A-6D show graphical data representative of various marker levels measured from M2-induced THP-1 macrophages treated with different concentrations of drugs for 48 hours (FIGS. 6A and 6B) or for 2 hours, then displaced with fresh medium and cultured for the remaining 46 hours (FIGS. 6C and 6D). In both cases, cell supernatants were collected and secreted CCL18 protein and IL-1β was detected by ELISA.
Further, to ensure that the above mRNA analyses accurately reflected the levels of profibrotic cytokines produced by IL-4, IL-6 plus IL-13 stimulated THP-1 cells, the concentrations of CCL18 and IL-1β polypeptides in the THP-1 supernatants were quantitated by ELISA assay.
CCL18 and IL-1β were quantified in induced THP-1 cell supernatants using a human DuoSet ELISA Development System (R&D Systems Europe, Abingdon, UK; #DY394-05) and an IL-1 beta Human ELISA Kit (Thermo Fisher Scientific, Waltham, MA; #BMS224-2) as described by manufactures.

[2] = tested on: BM-induced experimental pulmonary fibrosis in mice
Protocol: Studies were also performed to determine if macrophages in pulmonary fibrotic lungs might be specifically targeted with folate-linked drugs in vivo. […] (The BM model is widely regarded to be helpful in terms of enabling mechanistic investigations relevant to fibrogenesis in an in vivo context.)
More specifically, eight-week-old C57BL6 male mice from Charles River (average weight 22 g to 25 g) were housed under pathogen-free conditions at room temperature (22° C.) under a 12 hours light-dark cycle. Mice were placed on a folate deficient chow (Envigo Teklad Global Rat Food Pellets) for 1 week prior to the BM or PBS instillation. Fresh water and folate-deficient diet were freely available. All animal procedures were approved by the Purdue Animal Care and Use Committee in accordance with National Institute of Health guidelines.
Thereafter, the mice were anesthetized with ketamine/xylazine and the necks of the mice were shaved using hair remover lotion and then sterilized with 70% alcohol. A small incision was made on the neck to visualize the trachea. Mice were positioned at a 75-degree angle and injected intratracheally with 100 μL sterile PBS or BM (Cayman Chemicals, Ann Arbor, MI; #13877) dissolved in PBS (0.75 mg/kg) using a 1 cc syringe with 26 G needle. Body weights were monitored every other day throughout the experiment.
Lobes of the right lung collected above were weighed, placed in a pressure-tight vial (Supelco Inc., Bellefonte, PA; #27003), and hydrolyzed with 6N HCl (10 ml/g, v/w) in a sand bath at 120° C. for 3.5 hours. The hydrolyzed solution was cooled at 4° C. for 15 min and transferred to a 1.5 ml Eppendorf tube prior to centrifugation at 12,000 rcf for 15 min at 4° C. Supernatant was carefully collected, aliquoted and used for hydroxyproline (HYP) analysis.
For the subsequent HYP analysis, 10 μl of sample was transferred into a 96-well plate and neutralized with 10 μl of 5.3 M sodium hydroxide solution. Isopropanol (40 μl) was then added to each well followed by 20 μl of oxidation buffer and the mixture was incubated on a shaker at room temperature for 5 min. Analytical reagent (260 μl) was added, and the plate was incubated on a shaker at room temperature for 30 seconds and incubated immediately at 60° C. for 25 min. The absorbance was measured at 560 nm (A560) within 15 min. All reagents were prepared according to a previously reported protocol.
For histological analysis of the lung sections, fixed lungs (see above) were embedded in paraffin, sectioned and stained with hematoxylin-eosin (H&E), Masson's trichrome or F3 (anti-mouse FRβ antibody). Tissue sections were examined in a blinded manner by a licensed pathologist. More than 90×10^6 cells were quantified per section using Aperio-Image Scope (Leica Biosystems, Wetzlar, DE).
For this, BM-treated mice were intravenously injected every other day beginning on day 10 with either vehicle (3% DMSO in PBS) or Compound 1B (see FIG. 8A). […] In BM-induced experimental pulmonary fibrosis in mice, inflammation is known to persist for about 9-10 days after BM installation. Because, inflammation to fibrosis switch happens in this model approximately day 9 to day 14, and profibrotic markers start appearing at about day 10, dosing began on day 10 (FIG. 8A).
Two doses were given every other day till day 21. The individual doses on a day are separated by 6 hours to prevent any “tolerance” to TLR agonists. Mice were then sacrificed on day 21 and subjected immediately to bronchoalveolar lavage followed by resection of the lungs for immunohistochemistry and quantitation of collagen and hydroxyproline.

healthy mice = experiment: Plasma cytokine levels in healthy mice after tail vein injection; assay type: in vivo
Protocol: (FIGS. 20A-C) Measurement of plasma IL-6 (FIG. 20A), IFNα (FIG. 20B) and TNFα (FIG. 20C) (n=3). (FIGS. 20D-F). The effect of drug concentration on plasma levels of IL-6 (FIG. 20D), IFNα (FIG. 20E), and TNFα (FIG. 20F) was determined at 1.5 h, 1 h, or 1 h after treatment, respectively (n=2) (FIG. 20G).

[3] = incubated continuously for 48 hours, ELISA

**Q.** Which “reduction of secreted CCL18 and IL-1β, comparison of the two agonists” value ([1]; drug exposure limited to 2 hours, then 46 hours fresh medium) does the source give for `CCCCc1nc2c(N)nc3ccccc3c2n1CC(C)(C)OC(=O)OCCSSCC(NC(=O)CCC(NC(=O)c1ccc(NCc2cnc3nc(N)[nH]c(=O)c3n2)cc1)C(=O)O)C(=O)O` (stereo not shown) [Compound 1B] here?
**A.** superior

**Q.** And the “secreted CCL18 protein” value [1, 3]?
**A.** reductions

**Q.** And the “secreted IL-1β” value [1, 3]?
**A.** reductions

**Q.** And the “lung histology with increasing dose” value ([2]; 1, 3, 10 nmol)?
**A.** lung histology improved

**Q.** What about the “order of efficacy on lung hydroxyproline content” value ([2]; day 21) of the same molecule?
**A.** 10 nmol/mouse>3 nmol/mouse>1 nmol/mouse>0 nmol/mouse

**Q.** And the “anti-fibrotic response, lung sections stained DAPI, anti-F4/80, anti-CD206” value ([2]; differences between treated groups)?
**A.** robust anti-fibrotic response

**Q.** What about the “collagen stain, Masson's trichrome” value ([2]; tail vein injection) of the same molecule?
**A.** strongly suppressed

**Q.** What about the “lung histology, H&E staining” value ([2]; treated beginning on day 10) of the same molecule?
**A.** lung architecture that resembles that of healthy mice

**Q.** And the “systemic cytokine release (plasma IL-6, IFNα, TNFα)” value (healthy mice; 10 nmol tail vein)?
**A.** does not

**Q.** What about the “inflammatory cytokine release, dose comparison” value (healthy mice; effect of drug concentration) of the same molecule?
**A.** stimulates less inflammatory cytokine release than half the dose of Compound 1A
